ChEMBL document CHEMBL4376839, “Structure-Based Optimization of Coumarin hA3 Adenosine Receptor Antagonists” (J Med Chem, 2020)

Assays:
[1] = target: Adenosine receptor A2a (Homo sapiens, UniProt P29274); assay: Displacement of [3H]NECA from human adenosine receptor A2A expressed in CHO cell membranes by radioligand competition assay
[2] = target: T1, Adenosine receptor A3 (Homo sapiens, UniProt P0DMS8); assay: Displacement of [3H]HEMADO from human adenosine receptor A3 expressed in CHO cell membranes by radioligand competition assay
T1 sequence (P0DMS8 whole entry): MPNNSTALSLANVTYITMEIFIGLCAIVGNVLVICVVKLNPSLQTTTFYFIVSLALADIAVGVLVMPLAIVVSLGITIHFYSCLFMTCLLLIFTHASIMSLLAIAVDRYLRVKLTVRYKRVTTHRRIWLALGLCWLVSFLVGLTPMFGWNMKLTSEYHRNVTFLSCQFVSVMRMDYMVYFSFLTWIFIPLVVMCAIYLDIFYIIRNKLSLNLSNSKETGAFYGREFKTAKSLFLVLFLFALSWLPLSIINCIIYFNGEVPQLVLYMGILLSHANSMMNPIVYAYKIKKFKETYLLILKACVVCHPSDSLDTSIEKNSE

[3] = target: T2, Adenosine receptor A2b (Homo sapiens, UniProt P29275); assay: Antagonist activity at human adenosine receptor A2B expressed in CHO cells assessed as inhibition of NECA-stimulated adenylyl cyclase activity
T2 sequence (P29275 whole entry): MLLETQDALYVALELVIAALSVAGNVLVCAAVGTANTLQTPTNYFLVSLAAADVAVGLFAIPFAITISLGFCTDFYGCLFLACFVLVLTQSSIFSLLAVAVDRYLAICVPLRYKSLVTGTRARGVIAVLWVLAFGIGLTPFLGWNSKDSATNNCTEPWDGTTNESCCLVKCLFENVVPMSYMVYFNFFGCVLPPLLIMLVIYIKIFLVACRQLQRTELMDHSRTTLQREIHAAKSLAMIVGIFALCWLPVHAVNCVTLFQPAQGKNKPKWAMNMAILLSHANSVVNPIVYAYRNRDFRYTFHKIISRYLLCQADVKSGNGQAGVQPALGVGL

[4] = target: T2, Adenosine receptor A2b; assay: as above; remark: listed apart in the source
[5] = target: T1, Adenosine receptor A3; assay: Antagonist activity at human adenosine receptor A3 expressed in CHO cells assessed as suppression of NECA-induced decrease of cAMP accumulation by Glo-sensor cAMP assay; format: functional, cell-based
[6] = target: T3, Adenosine receptor A1 (Homo sapiens, UniProt P30542); assay: Displacement of [3H]CCPA from human adenosine receptor A1 expressed in CHO cell membranes by radioligand competition assay
T3 sequence (P30542 whole entry): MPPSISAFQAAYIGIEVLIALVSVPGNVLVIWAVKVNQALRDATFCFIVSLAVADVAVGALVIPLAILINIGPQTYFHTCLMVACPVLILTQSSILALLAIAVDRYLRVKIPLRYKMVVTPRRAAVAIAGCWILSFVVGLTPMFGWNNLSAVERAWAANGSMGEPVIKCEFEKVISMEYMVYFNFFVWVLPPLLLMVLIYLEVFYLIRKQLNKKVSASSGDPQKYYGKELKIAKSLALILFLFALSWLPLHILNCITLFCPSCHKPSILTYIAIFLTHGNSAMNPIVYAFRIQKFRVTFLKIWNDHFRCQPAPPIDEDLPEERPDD

Chain of Adenosine receptor A2a (P29274 whole entry): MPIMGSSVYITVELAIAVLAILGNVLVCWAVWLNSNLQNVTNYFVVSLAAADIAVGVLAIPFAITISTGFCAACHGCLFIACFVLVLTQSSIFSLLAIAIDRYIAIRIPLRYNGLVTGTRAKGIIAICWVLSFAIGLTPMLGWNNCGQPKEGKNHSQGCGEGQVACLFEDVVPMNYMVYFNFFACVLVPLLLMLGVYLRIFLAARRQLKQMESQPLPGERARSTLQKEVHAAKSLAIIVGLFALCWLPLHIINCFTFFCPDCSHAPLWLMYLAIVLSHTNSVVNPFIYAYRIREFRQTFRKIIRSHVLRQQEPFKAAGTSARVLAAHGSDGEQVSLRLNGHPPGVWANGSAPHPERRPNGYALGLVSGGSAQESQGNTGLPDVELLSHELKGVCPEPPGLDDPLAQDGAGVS

Compound | Ki [1] [µM] | Ki [2] [µM] | IC50 [3] [µM] | Ki [4] [µM] | IC50 [5] [µM] | Ki [6] [µM]
CCOc1cccc2cc(-c3ccc(OC)cc3)c(=O)oc12 | > 100 | 5.32 | > 30 | > 30 | 29.5 | > 100
Cc1cccc2cc(-c3cc(O)c(O)c(O)c3)c(=O)oc12 | > 100 | 14.3 | > 30 | > 30 |  | 14.7
CC(=O)Oc1ccc(-c2cc3ccc(OC(C)=O)c(OC(C)=O)c3oc2=O)cc1OC(C)=O | > 100 | 23.4 | > 30 | > 30 |  | > 100
CC(=O)COc1cccc2cc(-c3ccc(C)cc3)c(=O)oc12 | > 100 | 0.634 |  | > 30 |  | > 100
O=c1oc2c(O)cccc2cc1-c1ccc(Br)cc1 | > 100 |  | > 30 | > 30 |  | > 100
CCOc1cccc2cc(-c3cc(OC)c(OC)c(OC)c3)c(=O)oc12 | > 100 | 9.05 | > 30 | > 30 |  | > 100
Cc1ccc(-c2cc3cccc(C)c3oc2=O)cc1 | > 100 | 16.6 | > 30 | > 30 |  | > 100
CC(=O)Oc1ccc(-c2cc3ccc(OC(C)=O)c(OC(C)=O)c3oc2=O)cc1 | > 100 | 6.14 | > 30 | > 30 |  | > 100
CCOc1cccc2cc(-c3ccc([N+](=O)[O-])cc3)c(=O)oc12 | > 100 | > 100 | > 30 | > 30 |  | > 100
CC(=O)COc1cccc2cc(-c3ccc(Br)cc3)c(=O)oc12 | > 100 | > 30 |  | > 30 |  | > 100
CCOc1cccc2cc(-c3ccc(OC)c(OC)c3)c(=O)oc12 | > 100 | 13.7 | > 30 | > 30 |  | > 100
Cc1cccc2cc(-c3ccc([N+](=O)[O-])cc3)c(=O)oc12 | > 100 | > 100 | > 30 | > 30 |  | > 100
CCOc1cccc2cc(-c3ccc(OC)cc3OC)c(=O)oc12 | > 100 | 16.6 | > 30 | > 30 |  | > 100
CCOc1cccc2cc(-c3ccc(Br)cc3)c(=O)oc12 | > 100 | > 100 | > 30 | > 30 |  | > 100

More lines, now with the values ahead:

Ki [1] [µM] | Ki [2] [µM] | IC50 [3] [µM] | Ki [4] [µM] | IC50 [5] [µM] | Ki [6] [µM] | Compound
> 100 | 5.06 | > 30 | > 30 | 25.3 | > 100 | COc1ccc(-c2cc3cccc(OC)c3oc2=O)cc1
55 | 22.5 | > 30 | > 30 |  | 22.1 | CCOc1cccc2cc(-c3ccccc3)c(=O)oc12
42.3 | 5.09 | > 30 | > 30 |  | 4.62 | O=c1oc2c(O)cccc2cc1-c1ccccc1
14 | 23.6 | > 30 | > 30 |  | 6.2 | O=c1oc2c(O)cccc2cc1-c1ccc(O)c(O)c1
25.5 | 8.5 | > 30 | > 30 |  | 6.28 | O=c1oc2c(O)c(O)ccc2cc1-c1ccc(O)c(O)c1
12.1 | 3.85 | > 30 | > 30 |  | 2.4 | O=c1oc2c(O)c(O)ccc2cc1-c1ccccc1
35.7 | 6.86 | > 30 | > 30 |  | 6.93 | CC(=O)Oc1cccc2cc(-c3ccccc3)c(=O)oc12
16.1 | 7.06 |  | > 30 |  | 10.4 | CC(=O)COc1cccc2cc(-c3ccccc3)c(=O)oc12
59.1 | 8.02 | > 30 | > 30 |  | > 100 | COc1cccc2cc(-c3ccc([N+](=O)[O-])cc3)c(=O)oc12
64.4 | 22 | > 30 | > 30 |  | > 100 | CC(=O)Oc1ccc(-c2cc3cccc(OC(C)=O)c3oc2=O)cc1OC(C)=O
21.1 | 5.17 | > 30 | > 30 |  | 8.56 | CC(=O)Oc1ccc2cc(-c3ccccc3)c(=O)oc2c1OC(C)=O
55.3 | 9.16 | > 30 | > 30 |  | 12.5 | O=c1oc2c(O)c(O)ccc2cc1-c1ccc(O)cc1
25.9 | 13.6 | > 30 | > 30 |  | > 100 | COc1ccc(-c2cc3cccc(C)c3oc2=O)cc1OC
> 60 | 3.93 | > 30 | > 30 | 18.4 | > 100 | CCOc1cccc2cc(-c3ccc(C)cc3)c(=O)oc12
32.9 | 9.82 | > 30 | > 30 |  | > 60 | COc1cc(-c2cc3cccc(C)c3oc2=O)cc(OC)c1OC
42.1 | 17 | > 30 | > 30 |  | 14.8 | Cc1cccc2cc(-c3ccccc3)c(=O)oc12
